PubChem BioAssay AID2060497 (Molecular Pharmacology Branch, DTP, NCI, 2025)

System: 317291-083-R-J1-PDC complex spheroids, viability
Test: Anticancer human tumor 317291-083-R-J1-PDC patient-derived soft tissue sarcoma cell line growth inhibition [GQUAD]
Settings: for IC50: curve of first compound; for viability, T/C: stronger effect = lower value
From the text: DNA G-quadruplex Stabilizer Agents in Combinations in Complex Spheroids
A high-throughput screen of multi-cell type tumor spheroids was designed to identify active combinations of DNA G-quadruplex stabilizer agents and targeted small molecules. Complex spheroids include a stromal component modeled by human endothelial cells (HUVEC) and fibroblasts modeled by human mesenchymal stem cells (MSCs). The concentration ranges selected for each drug and investigational agent were based upon clinically achievable concentrations if the clinical Cmax of the agent was known.
Compounds. The drugs and investigational agents: pidnarulex (CX-5461; NSC782164), APTO-253 (NSC789042), BRACO-19 (NSC847499), peposertib (NSC802822), ceralasertib (NSC780249), elimusertib (NSC800525), camonsertib (NSC841442), AZD-1390 (NSC803789), olaparib (NSC753686), talazoparib (NSC767125), ART-558 (NSC835418), sotorasib (NSC818433), MRTX-1133 (NSC836407), SN-38 (NSC673596), topotecan (NSC609699), etoposide (NSC141540), doxorubicin (NSC123127), gemcitabine (NSC613327), 5-fluorouracil (NSC19893), paclitaxel (NSC125973), vemurafenib (NSC761431), panobinostat (NSC761190), R-306465 (JNJ-16241199; NSC773264), adavosertib (NSC754352), TP-3654 (NSC805149), carboplatin (NSC241240), KSQ-4279 (NSC840948), and staurosporine (NSC755774) were obtained from the National Cancer Institute (NCI) Developmental Therapeutics Program Chemical Repository (34). The FDA-approved anticancer drug set is available from the NCI Developmental Therapeutics Program. […] The stock solutions were prepared in dimethyl sulfoxide (DMSO, Sigma-Aldrich, St. Louis, MO, cat. D2650) at 800-fold the tested concentration and stored at -70 degrees C prior to their use. All drugs and investigational agents were tested over a range starting from a high concentration at or near the clinical Cmax and decreasing in half-log increments. If the clinical Cmax for an agent had not been determined, the highest concentration tested was 10 microM.
2.3 Cell Culture. All cells were maintained in an incubator at 37 degrees C and 5% CO2 with 95% humidity. The PDC lines were cultured according to standard operating procedures established by the NCI PDMR. All PDCs were thawed and cultured in Matrigel-coated flasks prepared with a working solution of 1X Ham's F-12 nutrient mix, without supplementation (Invitrogen, cat. 11765054), 100 U/mL penicillin-streptomycin (Invitrogen, cat. 15140122), and 2.5% Matrigel (Corning Inc., cat. 354248) for the first three passages. The 857933-349-R-J2-PDC line was cultured in 6C/Colon 1B media, which includes advanced DMEM/F-12 (Thermo Fisher Scientific, cat. 12634028), 10 mM HEPES (Thermo Fisher Scientific, cat. 15630080), 1X GlutaMAX supplement (Thermo Fisher Scientific, cat. 35050061), 0.1 mg/mL primocin (InvivoGen, cat. ant-pm-2), 10% defined fetal bovine serum, heat inactivated (HyClone Laboratories Inc., cat. SH30070.03HI), 50% L-WRN conditioned media (ATCC, cat. CRL-3276), 1.25 mM N-Acetyl-L-cysteine (Sigma-Aldrich, cat. A9165), 10 mM nicotinamide (Sigma-Aldrich, cat. N0636), 1X B-27 supplement (Thermo Fisher Scientific, cat. 17504044), 1X N-2 supplement (Thermo Fisher Scientific, cat. 17502048), 10 microM Y-27632 dihydrochloride (Tocris Bioscience, cat. 1254), and 50 ng/mL human EGF recombinant protein (Thermo Fisher Scientific, cat. PHG0311). The 485176-168-R4-J1-PDC line was cultured in Panc media, which includes all 6C/Colon 1B media components plus 100 ng/mL human FGF-10 (Thermo Fisher Scientific, cat. 100-26), 500 nM SB-431542 (Selleckchem, cat. S1067), and gastrin (Tocris, cat. 3006).
[…]

[1] = second compound 0.0316 µM, first compound 0.0316 µM
[2] = second compound 0.0316 µM, first compound 0.1 µM
[3] = second compound 0.0316 µM, first compound 0.316 µM
[4] = second compound 0.0316 µM, first compound 1 µM
[5] = second compound 0.0316 µM, first compound 3.16 µM
[6] = second compound 0.0316 µM, first compound 10 µM
[7] = second compound 0.1 µM, first compound 0.0316 µM
[8] = second compound 0.1 µM, first compound 0.1 µM
[9] = second compound 0.1 µM, first compound 0.316 µM
[10] = second compound 0.1 µM, first compound 1 µM
[11] = second compound 0.1 µM, first compound 3.16 µM
[12] = second compound 0.1 µM, first compound 10 µM
[13] = second compound 0.316 µM, first compound 0.0316 µM
[14] = second compound 0.316 µM, first compound 0.1 µM
[15] = second compound 0.316 µM, first compound 0.316 µM
[16] = second compound 0.316 µM, first compound 1 µM
[17] = second compound 0.316 µM, first compound 3.16 µM
[18] = second compound 0.316 µM, first compound 10 µM
[19] = second compound 1 µM, first compound 0.0316 µM
[20] = second compound 1 µM, first compound 0.1 µM
[21] = second compound 1 µM, first compound 0.316 µM
[22] = second compound 1 µM, first compound 1 µM
[23] = second compound 1 µM, first compound 3.16 µM
[24] = second compound 1 µM, first compound 10 µM
[25] = second compound 3.16 µM, first compound 0.0316 µM
[26] = second compound 3.16 µM, first compound 0.1 µM
[27] = second compound 3.16 µM, first compound 0.316 µM
[28] = second compound 3.16 µM, first compound 1 µM
[29] = second compound 3.16 µM, first compound 3.16 µM
[30] = second compound 3.16 µM, first compound 10 µM
[31] = second compound 10 µM, first compound 0.0316 µM
[32] = second compound 10 µM, first compound 0.1 µM
[33] = second compound 10 µM, first compound 0.316 µM
[34] = second compound 10 µM, first compound 1 µM
[35] = second compound 10 µM, first compound 3.16 µM
[36] = second compound 10 µM, first compound 10 µM
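Note: spheroids exposed to compounds for one week before readout.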
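Throughout, for viability, T/C: percent viability relative to DMSO vehicle wells taken as 100%.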

SMILES: CC(C)(O)C1CCC(Nc2ccc3ncc(-c4cccc(C(F)(F)F)c4)n3n2)CC1 (centres undefined) + CN(C)c1ccc(Nc2c3ccc(NC(=O)CCN4CCCC4)cc3nc3cc(NC(=O)CCN4CCCC4)ccc23)cc1
- IC50 (second compound 0.0316 µM): 789 nM
- IC50 (second compound 0.1 µM): 691 nM
- IC50 (second compound 0.316 µM): 455 nM
- IC50 (second compound 1 µM): 44.7 nM
- IC50 (second compound 3.16 µM): < 31.6 nM
- IC50 (second compound 10 µM): < 31.6 nM
- viability, T/C [1]: 103%
- viability, T/C [2]: 106%
- viability, T/C [3]: 99.8%
- viability, T/C [4]: 37.1%
- viability, T/C [5]: 0.9%
- viability, T/C [6]: 0.94%
- viability, T/C [7]: 97.5%
- viability, T/C [8]: 92.2%
- viability, T/C [9]: 102%
- viability, T/C [10]: 27.6%
- viability, T/C [11]: 0.49%
- viability, T/C [12]: 0.46%
- viability, T/C [13]: 65.9%
- viability, T/C [14]: 65.7%
- viability, T/C [15]: 72%
- viability, T/C [16]: 11.3%
- viability, T/C [17]: 0.66%
- viability, T/C [18]: 0.64%
- viability, T/C [19]: 59.3%
- viability, T/C [20]: 25.4%
- viability, T/C [21]: 28.7%
- viability, T/C [22]: 3.69%
- viability, T/C [23]: 0.2%
- viability, T/C [24]: 0.13%
- viability, T/C [25]: 5.54%
- viability, T/C [26]: 1.6%
- viability, T/C [27]: 6.22%
- viability, T/C [28]: 0.39%
- viability, T/C [29]: 0.12%
- viability, T/C [30]: 0.29%
- viability, T/C [31]: 0.6%
- viability, T/C [32]: 0.45%
- viability, T/C [33]: 0.27%
- viability, T/C [34]: 0.46%
- viability, T/C [35]: 0.22%
- viability, T/C [36]: 0.31%

SMILES: CC1COCCN1c1cc(-c2ccnn2C)c2ccnc(-c3ccn[nH]3)c2n1 (centres undefined) + Cc1[nH]c2ccc(F)cc2c1-c1nc2c3cccnc3c3ncccc3c2[nH]1
- IC50 (second compound 0.0316 µM): 88.8 nM
- IC50 (second compound 0.1 µM): 75.1 nM
- IC50 (second compound 0.316 µM): 64.4 nM
- IC50 (second compound 1 µM): 62.5 nM
- IC50 (second compound 3.16 µM): 65.4 nM
- IC50 (second compound 10 µM): 70.9 nM
- viability, T/C [1]: 87.9%
- viability, T/C [2]: 45.6%
- viability, T/C [3]: 16.4%
- viability, T/C [4]: 11.7%
- viability, T/C [5]: 13%
- viability, T/C [6]: 15.1%
- viability, T/C [7]: 89.4%
- viability, T/C [8]: 36.9%
- viability, T/C [9]: 14.7%
- viability, T/C [10]: 13.8%
- viability, T/C [11]: 13.6%
- viability, T/C [12]: 11.5%
- viability, T/C [13]: 77.7%
- viability, T/C [14]: 33%
- viability, T/C [15]: 13.8%
- viability, T/C [16]: 14.1%
- viability, T/C [17]: 11.5%
- viability, T/C [18]: 14.4%
- viability, T/C [19]: 76.1%
- viability, T/C [20]: 31.9%
- viability, T/C [21]: 18%
- viability, T/C [22]: 14.8%
- viability, T/C [23]: 15.3%
- viability, T/C [24]: 10.1%
- viability, T/C [25]: 60.7%
- viability, T/C [26]: 43.7%
- viability, T/C [27]: 13.3%
- viability, T/C [28]: 9.76%
- viability, T/C [29]: 9.63%
- viability, T/C [30]: 14.1%
- viability, T/C [31]: 89%
- viability, T/C [32]: 33.4%
- viability, T/C [33]: 13.8%
- viability, T/C [34]: 8.91%
- viability, T/C [35]: 10%
- viability, T/C [36]: 12.1%
